Columns and labels:
[1] = biological target: T1, TGF-beta receptor type-1 (Homo sapiens) (UniProt P36897); experiment: Inhibition of TGFBR1 (unknown origin) assessed as remaining activity at 1 uM by Kinome scan method relative to control
T1 sequence (whole entry): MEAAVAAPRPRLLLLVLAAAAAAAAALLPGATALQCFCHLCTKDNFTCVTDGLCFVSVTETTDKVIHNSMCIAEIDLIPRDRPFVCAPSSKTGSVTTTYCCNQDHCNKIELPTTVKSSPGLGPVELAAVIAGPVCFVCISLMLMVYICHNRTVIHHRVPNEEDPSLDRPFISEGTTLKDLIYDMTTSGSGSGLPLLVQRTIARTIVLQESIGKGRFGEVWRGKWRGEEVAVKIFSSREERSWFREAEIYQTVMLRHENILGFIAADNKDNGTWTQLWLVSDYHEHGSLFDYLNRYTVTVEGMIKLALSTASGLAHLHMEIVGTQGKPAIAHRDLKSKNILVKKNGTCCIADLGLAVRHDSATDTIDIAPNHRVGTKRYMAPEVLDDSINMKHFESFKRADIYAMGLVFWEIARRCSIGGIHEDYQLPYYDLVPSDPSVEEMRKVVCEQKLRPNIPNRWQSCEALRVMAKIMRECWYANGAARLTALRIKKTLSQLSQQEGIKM

[2] = biological target: Hormonally up-regulated neu tumor-associated kinase (Homo sapiens) (UniProt P57058); experiment: Inhibition of HUNK (unknown origin) assessed as remaining activity at 1 uM by Kinome scan method relative to control
[3] = biological target: Serine/threonine-protein kinase/endoribonuclease IRE1 (Homo sapiens) (UniProt O75460); experiment: Inhibition of ERN1 (unknown origin) assessed as remaining activity at 1 uM by Kinome scan method relative to control
[4] = biological target: Serine/threonine-protein kinase pim-2 (Homo sapiens) (UniProt Q9P1W9); experiment: Inhibition of PIM2 (unknown origin) assessed as remaining activity at 1 uM by Kinome scan method relative to control
[5] = biological target: Ribosomal protein S6 kinase alpha-4 (Homo sapiens) (UniProt O75676); experiment: Inhibition of N-terminal kinase domain RPS6KA4 (unknown origin) assessed as remaining activity at 1 uM by Kinome scan method relative to control
[6] = biological target: Fibroblast growth factor receptor 2 (Homo sapiens) (UniProt P21802); experiment: Inhibition of FGFR2 (unknown origin) assessed as remaining activity at 1 uM by Kinome scan method relative to control
[7] = biological target: Membrane-associated tyrosine- and threonine-specific cdc2-inhibitory kinase (Homo sapiens) (UniProt Q99640); experiment: Inhibition of PKMYT1 (unknown origin) assessed as remaining activity at 1 uM by Kinome scan method relative to control
[8] = system: Mast/stem cell growth factor receptor Kit (Homo sapiens), P10721 [D816V]; experiment: Inhibition of KIT D816V mutant (unknown origin) assessed as remaining activity at 1 uM by Kinome scan method relative to control
[9] = biological target: Receptor-interacting serine/threonine-protein kinase 4 (Homo sapiens) (UniProt P57078); experiment: Inhibition of RIPK4 (unknown origin) assessed as remaining activity at 1 uM by Kinome scan method relative to control
[10] = biological target: Non-receptor tyrosine-protein kinase TYK2 (Homo sapiens) (UniProt P29597); experiment: Inhibition of TYK2 JH1 domain (unknown origin) assessed as remaining activity at 1 uM by Kinome scan method relative to control
[11] = biological target: T2, Calcium/calmodulin-dependent protein kinase type IV (Homo sapiens) (UniProt Q16566); experiment: Inhibition of CAMK4 (unknown origin) assessed as remaining activity at 1 uM by Kinome scan method relative to control
T2 sequence (whole entry): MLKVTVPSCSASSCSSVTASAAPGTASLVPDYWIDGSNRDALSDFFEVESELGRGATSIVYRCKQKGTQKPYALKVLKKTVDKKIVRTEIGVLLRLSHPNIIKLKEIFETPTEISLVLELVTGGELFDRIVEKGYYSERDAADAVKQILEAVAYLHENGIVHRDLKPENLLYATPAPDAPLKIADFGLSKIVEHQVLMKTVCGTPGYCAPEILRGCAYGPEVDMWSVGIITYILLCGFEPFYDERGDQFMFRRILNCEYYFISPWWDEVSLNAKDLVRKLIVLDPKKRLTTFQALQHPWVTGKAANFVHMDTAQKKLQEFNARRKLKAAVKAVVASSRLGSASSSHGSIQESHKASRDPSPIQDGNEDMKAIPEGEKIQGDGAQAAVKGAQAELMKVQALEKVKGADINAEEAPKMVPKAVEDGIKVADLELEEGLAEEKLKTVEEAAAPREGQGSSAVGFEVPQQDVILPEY

[12] = biological target: T3, Muscle, skeletal receptor tyrosine-protein kinase (Homo sapiens) (UniProt O15146); experiment: Inhibition of MUSK (unknown origin) assessed as remaining activity at 1 uM by Kinome scan method relative to control
T3 sequence (whole entry): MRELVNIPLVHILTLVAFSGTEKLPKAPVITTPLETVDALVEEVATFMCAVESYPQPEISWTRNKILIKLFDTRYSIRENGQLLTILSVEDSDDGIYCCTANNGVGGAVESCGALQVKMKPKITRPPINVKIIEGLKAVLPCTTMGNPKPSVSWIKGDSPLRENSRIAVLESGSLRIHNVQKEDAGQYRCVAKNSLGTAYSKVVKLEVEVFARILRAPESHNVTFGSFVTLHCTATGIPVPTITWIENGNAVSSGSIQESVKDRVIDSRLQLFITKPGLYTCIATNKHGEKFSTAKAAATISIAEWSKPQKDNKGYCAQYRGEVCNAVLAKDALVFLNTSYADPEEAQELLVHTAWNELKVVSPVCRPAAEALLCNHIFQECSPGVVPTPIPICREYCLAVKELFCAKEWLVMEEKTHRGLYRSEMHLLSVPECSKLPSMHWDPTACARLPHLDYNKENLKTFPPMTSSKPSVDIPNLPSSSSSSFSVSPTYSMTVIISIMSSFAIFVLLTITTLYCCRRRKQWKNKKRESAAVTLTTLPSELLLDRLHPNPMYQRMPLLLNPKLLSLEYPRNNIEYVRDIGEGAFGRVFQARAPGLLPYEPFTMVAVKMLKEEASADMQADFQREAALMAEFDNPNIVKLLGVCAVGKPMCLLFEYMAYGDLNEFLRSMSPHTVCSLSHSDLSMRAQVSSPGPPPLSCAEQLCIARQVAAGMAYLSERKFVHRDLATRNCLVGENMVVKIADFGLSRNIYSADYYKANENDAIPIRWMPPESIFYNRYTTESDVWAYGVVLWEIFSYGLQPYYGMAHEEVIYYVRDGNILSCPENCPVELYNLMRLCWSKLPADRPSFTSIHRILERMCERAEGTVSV

Sequence of Non-receptor tyrosine-protein kinase TYK2 (Homo sapiens) (P29597 whole entry, the tested form may be a part): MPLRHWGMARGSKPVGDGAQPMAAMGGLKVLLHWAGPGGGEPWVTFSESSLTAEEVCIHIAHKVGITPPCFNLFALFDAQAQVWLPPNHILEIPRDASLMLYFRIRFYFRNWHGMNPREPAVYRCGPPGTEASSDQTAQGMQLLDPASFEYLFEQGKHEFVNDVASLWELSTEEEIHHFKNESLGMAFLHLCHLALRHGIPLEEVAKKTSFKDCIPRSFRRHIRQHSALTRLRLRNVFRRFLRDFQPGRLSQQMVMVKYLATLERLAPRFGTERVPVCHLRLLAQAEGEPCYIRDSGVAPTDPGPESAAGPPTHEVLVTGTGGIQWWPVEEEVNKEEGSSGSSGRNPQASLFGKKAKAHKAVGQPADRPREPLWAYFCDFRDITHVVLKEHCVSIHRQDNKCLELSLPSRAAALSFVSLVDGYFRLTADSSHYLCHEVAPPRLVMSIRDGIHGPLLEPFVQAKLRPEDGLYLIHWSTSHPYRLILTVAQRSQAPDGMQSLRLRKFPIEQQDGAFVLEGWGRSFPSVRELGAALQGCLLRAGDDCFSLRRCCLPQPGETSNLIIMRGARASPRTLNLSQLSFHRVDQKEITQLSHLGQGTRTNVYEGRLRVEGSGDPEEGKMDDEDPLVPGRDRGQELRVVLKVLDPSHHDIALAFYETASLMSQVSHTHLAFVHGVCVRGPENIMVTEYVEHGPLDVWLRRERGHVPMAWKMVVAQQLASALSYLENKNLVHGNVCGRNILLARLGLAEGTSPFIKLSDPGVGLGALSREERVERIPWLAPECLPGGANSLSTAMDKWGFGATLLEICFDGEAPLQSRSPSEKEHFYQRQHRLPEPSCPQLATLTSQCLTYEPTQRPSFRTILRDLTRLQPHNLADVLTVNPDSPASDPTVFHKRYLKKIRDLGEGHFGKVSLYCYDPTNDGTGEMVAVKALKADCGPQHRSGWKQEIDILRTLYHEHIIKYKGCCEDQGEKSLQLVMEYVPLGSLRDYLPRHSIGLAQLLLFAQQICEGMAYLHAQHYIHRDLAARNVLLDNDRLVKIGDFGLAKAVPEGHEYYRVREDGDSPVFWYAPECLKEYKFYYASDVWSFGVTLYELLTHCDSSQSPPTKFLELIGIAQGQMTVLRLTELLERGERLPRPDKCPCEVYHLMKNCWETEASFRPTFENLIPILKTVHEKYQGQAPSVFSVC
Sequence of Membrane-associated tyrosine- and threonine-specific cdc2-inhibitory kinase (Homo sapiens) (Q99640 whole entry): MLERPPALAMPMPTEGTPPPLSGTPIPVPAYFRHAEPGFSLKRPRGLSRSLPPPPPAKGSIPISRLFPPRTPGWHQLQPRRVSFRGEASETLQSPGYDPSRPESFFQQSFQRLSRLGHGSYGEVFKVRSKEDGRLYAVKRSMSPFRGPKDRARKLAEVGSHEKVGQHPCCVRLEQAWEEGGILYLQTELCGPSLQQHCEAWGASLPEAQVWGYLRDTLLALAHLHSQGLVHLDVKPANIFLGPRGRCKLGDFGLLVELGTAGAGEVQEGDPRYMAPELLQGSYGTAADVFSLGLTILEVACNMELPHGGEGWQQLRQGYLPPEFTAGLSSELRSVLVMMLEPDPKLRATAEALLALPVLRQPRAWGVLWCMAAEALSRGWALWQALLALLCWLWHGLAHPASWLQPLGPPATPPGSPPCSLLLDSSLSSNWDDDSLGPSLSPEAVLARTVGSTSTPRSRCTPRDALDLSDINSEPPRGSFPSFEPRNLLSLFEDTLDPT
Sequence of Hormonally up-regulated neu tumor-associated kinase (Homo sapiens) (P57058 whole entry): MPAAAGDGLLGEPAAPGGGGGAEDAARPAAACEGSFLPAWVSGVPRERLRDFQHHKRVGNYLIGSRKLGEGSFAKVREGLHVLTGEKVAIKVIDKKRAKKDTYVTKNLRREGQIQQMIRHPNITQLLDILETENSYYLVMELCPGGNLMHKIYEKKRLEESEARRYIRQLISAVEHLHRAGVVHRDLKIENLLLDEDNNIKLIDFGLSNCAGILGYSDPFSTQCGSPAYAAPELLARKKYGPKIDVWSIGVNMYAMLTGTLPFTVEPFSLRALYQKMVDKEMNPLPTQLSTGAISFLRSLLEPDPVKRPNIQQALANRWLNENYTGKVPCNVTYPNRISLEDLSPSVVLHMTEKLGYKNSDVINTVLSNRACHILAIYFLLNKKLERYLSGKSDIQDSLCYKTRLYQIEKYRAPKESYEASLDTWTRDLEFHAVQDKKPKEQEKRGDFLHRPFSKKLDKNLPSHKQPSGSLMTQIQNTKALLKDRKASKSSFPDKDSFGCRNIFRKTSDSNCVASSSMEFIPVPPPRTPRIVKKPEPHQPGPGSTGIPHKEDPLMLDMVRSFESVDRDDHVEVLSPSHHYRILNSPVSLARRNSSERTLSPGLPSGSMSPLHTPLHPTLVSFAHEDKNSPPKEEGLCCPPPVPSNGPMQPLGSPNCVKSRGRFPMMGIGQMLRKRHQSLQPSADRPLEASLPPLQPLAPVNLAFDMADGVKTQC
Sequence of Mast/stem cell growth factor receptor Kit (Homo sapiens), P10721 [D816V] (P10721 whole entry D816V): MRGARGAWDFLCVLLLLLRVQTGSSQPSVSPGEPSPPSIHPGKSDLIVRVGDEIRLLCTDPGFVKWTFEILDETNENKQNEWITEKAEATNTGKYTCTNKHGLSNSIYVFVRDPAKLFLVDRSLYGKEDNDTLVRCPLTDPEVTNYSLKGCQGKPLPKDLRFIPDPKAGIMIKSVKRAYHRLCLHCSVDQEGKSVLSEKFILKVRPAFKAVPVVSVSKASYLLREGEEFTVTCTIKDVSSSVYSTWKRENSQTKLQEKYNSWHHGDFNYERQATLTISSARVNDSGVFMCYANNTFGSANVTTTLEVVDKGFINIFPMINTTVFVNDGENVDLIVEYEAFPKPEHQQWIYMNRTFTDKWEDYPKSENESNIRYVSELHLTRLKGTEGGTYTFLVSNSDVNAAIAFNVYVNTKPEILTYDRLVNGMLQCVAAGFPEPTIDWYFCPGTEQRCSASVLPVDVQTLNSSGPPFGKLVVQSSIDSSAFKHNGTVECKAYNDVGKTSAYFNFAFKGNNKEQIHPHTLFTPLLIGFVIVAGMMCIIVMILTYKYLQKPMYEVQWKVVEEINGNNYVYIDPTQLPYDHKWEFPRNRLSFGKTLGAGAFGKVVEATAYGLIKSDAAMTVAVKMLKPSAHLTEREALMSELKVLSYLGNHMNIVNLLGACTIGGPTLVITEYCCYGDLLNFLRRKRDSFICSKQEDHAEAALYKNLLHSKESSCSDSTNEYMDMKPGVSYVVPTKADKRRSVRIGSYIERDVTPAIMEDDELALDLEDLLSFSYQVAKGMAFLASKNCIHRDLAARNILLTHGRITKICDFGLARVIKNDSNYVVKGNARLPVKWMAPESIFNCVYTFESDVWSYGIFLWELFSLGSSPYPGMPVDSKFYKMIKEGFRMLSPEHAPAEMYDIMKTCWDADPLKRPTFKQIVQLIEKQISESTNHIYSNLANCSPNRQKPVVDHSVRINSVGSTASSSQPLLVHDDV
Sequence of Serine/threonine-protein kinase/endoribonuclease IRE1 (Homo sapiens) (O75460 19-977 limits assumed): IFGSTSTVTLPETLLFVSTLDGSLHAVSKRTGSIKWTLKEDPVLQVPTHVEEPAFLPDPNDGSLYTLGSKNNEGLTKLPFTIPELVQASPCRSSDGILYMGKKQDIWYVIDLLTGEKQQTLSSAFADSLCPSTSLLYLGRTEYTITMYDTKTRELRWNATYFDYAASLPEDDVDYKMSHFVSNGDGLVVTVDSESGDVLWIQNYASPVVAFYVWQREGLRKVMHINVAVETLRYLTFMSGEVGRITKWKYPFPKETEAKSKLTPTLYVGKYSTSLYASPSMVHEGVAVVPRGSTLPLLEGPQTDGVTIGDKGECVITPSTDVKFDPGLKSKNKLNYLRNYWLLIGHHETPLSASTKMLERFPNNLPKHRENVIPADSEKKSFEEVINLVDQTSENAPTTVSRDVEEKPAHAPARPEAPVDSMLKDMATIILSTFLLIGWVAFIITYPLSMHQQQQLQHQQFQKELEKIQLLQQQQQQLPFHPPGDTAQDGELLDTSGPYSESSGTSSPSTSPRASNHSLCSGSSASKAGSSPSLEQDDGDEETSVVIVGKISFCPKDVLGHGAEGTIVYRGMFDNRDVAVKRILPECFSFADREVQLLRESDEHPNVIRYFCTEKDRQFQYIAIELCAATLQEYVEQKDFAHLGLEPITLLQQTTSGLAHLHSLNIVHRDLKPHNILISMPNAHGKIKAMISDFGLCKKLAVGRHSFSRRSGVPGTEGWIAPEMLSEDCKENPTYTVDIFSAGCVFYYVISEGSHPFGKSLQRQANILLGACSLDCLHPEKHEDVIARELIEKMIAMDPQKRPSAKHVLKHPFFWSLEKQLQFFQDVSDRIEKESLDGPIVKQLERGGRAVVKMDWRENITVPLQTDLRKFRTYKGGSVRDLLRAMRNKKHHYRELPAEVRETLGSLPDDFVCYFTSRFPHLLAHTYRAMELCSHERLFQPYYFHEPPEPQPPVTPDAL
Sequence of Serine/threonine-protein kinase pim-2 (Homo sapiens) (Q9P1W9 whole entry, looked up, the tested form may be a part): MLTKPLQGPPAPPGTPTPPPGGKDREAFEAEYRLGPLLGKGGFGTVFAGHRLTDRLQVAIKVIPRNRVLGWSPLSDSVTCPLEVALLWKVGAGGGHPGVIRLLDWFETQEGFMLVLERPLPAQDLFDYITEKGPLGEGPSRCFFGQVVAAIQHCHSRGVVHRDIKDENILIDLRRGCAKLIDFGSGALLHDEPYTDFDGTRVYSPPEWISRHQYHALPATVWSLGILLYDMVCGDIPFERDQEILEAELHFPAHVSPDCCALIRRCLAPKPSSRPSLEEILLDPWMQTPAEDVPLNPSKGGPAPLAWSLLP

| Compound | Activity [1] | Activity [2] | Activity [3] | Activity [4] | Activity [5] | Activity [6] | Activity [7] | Activity [8] | Activity [9] | Activity [10] | Activity [11] | Activity [12] |
| --- | --- | --- | --- | --- | --- | --- | --- | --- | --- | --- | --- | --- |
| Nc1ccccc1Nc1ccc2c(c1)CCc1ccccc1C2=O | 90% | 91% | 98% | 98% | 94% | 91% | 64% | 85% | 80% | 83% | 90% | 86% |
| O=C1c2ccc(Nc3ccc(F)cc3F)cc2CCc2ccc(OC[C@H](O)CO)cc21 [Skepinone-L] | 100% | 96% | 100% | 100% | 82% | 98% | 85% | 89% | 90% | 58% | 90% | 90% |
